In this assay the test system is mouse stomach-derived ghrelin-secreting cell line MGN3-1. Kind of assay: Secretion of active (acylated) ghrelin from MGN3-1 cells, ELISA. Type of assay: cell-based. The settings on record: for Acylated ghrelin (% control): 2 hours culture, control = 100; for ghrelin secretion promoting effect: conclusion from Table 3, absence of a gastric lipase. The protocol: The mouse stomach-derived ghrelin-secreting cell line MGN3-1 was seeded at 1×10^5 cells/well in a 96-well plate and cultured for 24 hours. After culturing, the cells were washed with 200 μL of Dulbecco's PBS, and 100 μL of each solution containing one test substance as indicated in Table 1 (buffer solution: 50 μM sodium octanoate/DMEM) was added (test group). The concentration of the test substance was applied at 10 μM or 30 μM. In the control group, 100 μL of a buffer solution without test substance was added. The number of trials performed, n, for each group was 4. After each group was cultured for 2 hours, a culture solution was recovered and centrifuged (800 g, 5 minutes, 4° C.) to obtain 80 μL of a supernatant. The supernatant was added with 8 μL of 1 N HCl and stored at −80° C. Next, active ghrelin (acylated ghrelin) in the sample was measured by the ELISA method (Ghrelin (Acylated) EIA Kit A05117, Bertin Pharma). Average values of measured values of the concentrations of ghrelin secreted when the test substances as indicated in Table 2 or Table 3 were added were calculated and indicated as values (%) assuming that the value of the control is 100 (Tables 2 and 3). The test was conducted again using the same testing method as described above, and the concentration of active ghrelin (acylated ghrelin) secreted in the sample was measured (FIGS. 2 and 3).
Statistical analysis was performed using a t-test or one-way ANOVA (one-way analysis of variance), and a multiple comparison test was conducted using the Tukey-Kramer test.
(In an ELISA, binding on a coated surface is turned into a signal by an enzyme label.)

Setting [1] is: Table 2, test substance 10 μM, n=4.
The mark [2] stands for this setting: Table 2, test substance 30 μM, n=4.
Where [3] appears, read: Table 3, test substance 30 μM, n=4.

SMILES strings stand for the structures.

Consider 10 molecules from US20260206813A1, “COMPOSITION FOR PROMOTING GHRELIN SECRETION” (Meiji Co., Ltd., priority 2022, published 2026).

For `CCCCCCCCCCCCCCCC(=O)O` [Test substance 1, Palmitic acid, reference compound], where the note is “Table 2, concentration not stated (10 μM and 30 μM tested)”, the “difference of acylated ghrelin from the control” value is recorded as “no differences”. For the same molecule, the “Acylated ghrelin (% control)” value is 82 % control under setting [1] and 107 % control under setting [2].

In the case of `CCCCCCCC/C=C\CCCCCCCC(=O)O` [Test substance 2, Oleic acid], the “Acylated ghrelin (% control)” value was 146 % control under setting [1] and 138 % control under setting [2].

Turning to `CCCCCCCCCCCCCCCC(=O)OCC(O)CO` (centres unmarked) [Test substance 3, 1-Monopalmitin], the “difference of acylated ghrelin from the control” value (Table 2, 10 μM) is listed as “no differences”. Besides, the “acylated ghrelin concentration as compared with the control” value (Table 2, printed 30 M) is on record as “increase”. Moreover, the “Acylated ghrelin (% control)” value reads like this: under setting [1], 105 % control; under setting [2], 134 % control.

In the case of `CCCCCCCCCCCCCCCC(=O)OC(CO)CO` [Test substance 4, 2-Monopalmitin], the “increase of acylated ghrelin concentration as compared with the control” value (FIG. 1, repeat test, 30 μM, n=4, significant (p<0.05)) is given as “about 1.2 times”. The “Acylated ghrelin (% control)” value turned out to be 168 % control under setting [1], 218 % control under setting [2] and 389 % control under setting [3].

For `CCCCCCCC/C=C\CCCCCCCC(=O)OCC(O)CO` (centres unmarked) [Test substance 5, 1-Monoolein], the “Acylated ghrelin (% control)” value is listed as 177 % control under setting [1], 209 % control under setting [2] and 388 % control under setting [3].

Consider `CCCCCCCC/C=C\CCCCCCCC(=O)OC(CO)CO` [Test substance 6, 2-Monoolein], for which the “Acylated ghrelin (% control)” value is, setting by setting: under setting [1], 193 % control; under setting [2], 206 % control; under setting [3], 336 % control.

Consider `CCCCCCCC/C=C\CCCCCCCC(=O)OCC(CO)OC(=O)CCCCCCCCCCCCCCC` (centres unmarked) [Test substance 7, 1-Oleoyl-2-palmitoylglycerol], for which the “Acylated ghrelin (% control)” value under setting [3] came to 237 % control. Also, the “ghrelin secretion promoting effect” value (30 μM) is on record as “ghrelin secretion promoting effect”.

`CCCCCCCC/C=C\CCCCCCCC(=O)OC(CO)COC(=O)CCCCCCCCCCCCCCC` (centres unmarked) [Test substance 8, 1-Palmitoyl-2-oleoylglycerol]: the “Acylated ghrelin (% control)” value under setting [3] is listed as 206 % control. For the same molecule, the “ghrelin secretion promoting effect” value (30 μM) is recorded as “ghrelin secretion promoting effect”.

Regarding `CCCCCCCC/C=C\CCCCCCCC(=O)OCC(COC(=O)CCCCCCC/C=C\CCCCCCCC)OC(=O)CCCCCCCCCCCCCCC` [Test substance 9, 1,3-Dioleoyl-2-palmitoylglycerol], the “Acylated ghrelin (% control)” value under setting [3] amounted to 116 % control. Further, the “ghrelin secretion promoting effect” value (30 μM) is “ghrelin secretion promoting effect”. For the same molecule, the “acylated ghrelin concentration as compared with the control” value (summary of Table 3, 30 μM) is listed as “increased”.

As for `CCCCCCCC/C=C\CCCCCCCC(=O)OC(COC(=O)CCCCCCCCCCCCCCC)COC(=O)CCCCCCCCCCCCCCC` [Test substance 10, 1,3-Dipalmitoyl-2-oleoylglycerol], the “Acylated ghrelin (% control)” value under setting [3] was 138 % control. The “ghrelin secretion promoting effect” value (30 μM) was “ghrelin secretion promoting effect”. In addition, where the note is “summary of Table 3, 30 μM”, the “acylated ghrelin concentration as compared with the control” value is given as “increased”.
